Measured values published in paper PMC6415263, “Proteins as Nano-Carriers for Bioactive Compounds. The Case of 7S and 11S Soy Globulins and Folic Acid Complexation” (Polymers, 2018).

Assays:
[1] = target: T1, 7S globulin (β-conglycinin); assay: intrinsic fluorescence quenching, modified double logarithm model; assay type: binding, Glycine max; details: Trizma buffer pH 7.0, I = 0.05 M, 25 °C; excitation 280 nm; protein 5 μM, FA 0-20 μM (methods section prints mM)
T1 construct: gene CG-1; native 7S fraction from defatted soybean flour (Nagano method), lyophilized; mixed trimers of alpha, alpha' and beta; 150-200 kDa; minor gamma-conglycinin
Source text: intrinsic fluorescence quenching, modified double logarithm model on 7S globulin (β-conglycinin)

[2] = target: T2, 11S globulin (glycinin); assay: as above; assay type: binding, Glycine max; details: Trizma buffer pH 7.0, I = 0.05 M, 25 °C; excitation 280 nm; protein 5 μM, FA 0-20 μM (methods section prints mM)
T2 construct: gene GY1; native 11S fraction from defatted soybean flour (Nagano method), lyophilized; hexamer of non-identical subunits, each acidic A and basic B polypeptide joined by disulfide; 300-380 kDa
Source text: intrinsic fluorescence quenching, modified double logarithm model on 11S globulin (glycinin)

- Parameters derived from modified double logarithm model / Ka [M^-1] [1]: 4.00 × 10^4
- Parameters derived from modified double logarithm model / Ka [M^-1] [2]: 4.36 × 10^4
Compound: Nc1nc2ncc(CNc3ccc(C(=O)N[C@@H](CCC(=O)O)C(=O)O)cc3)nc2c(=O)[nH]1 [folic acid]
